Patent publication US11591365B2, “BCL9 peptides and variants thereof” (WntRx Pharmaceuticals Inc., priority 2017, dated 2023)
Where a SMILES comes first, the peptide text is derived from it. Bridges are numbered along the chain shown (N, C = ends). [ ]: non-standard residue; d: D form. The star is where a group is joined. 2Nal = N[C@@H](Cc1ccc2ccccc2c1)C(=O)O; NMeR = CN[C@@H](CCCNC(=N)N)C(=O)O; Palmitoyl = CCCCCCCCCCCCCCCC(=O)*; hArg = N=C(N)NCCCC[C@H](N)C(=O)O; tBuAla = CC(C)(C)C[C@H](N)C(=O)O; NMeQ = CN[C@@H](CCC(N)=O)C(=O)O; Cha = N[C@@H](CC1CCCCC1)C(=O)O; Cba = N[C@@H](CC1CCC1)C(=O)O; PEG4 = NCCOCCOCCOCCOCCC(=O)O; S5 = C=CCCC[C@](C)(N)C(=O)O

Each compound was assayed on Colo320DM (assay: Colo320DM cell viability).
Assay type: cell-based, human
From the text: In some embodiments, a polypeptide described herein inhibits binding of BLC9 to β-catenin when assessed in a cell-viability assay. In some embodiments, the cell-viability assay is a CellTiterGlo luminescent assay, wherein the viability of cells is quantitatively measured. Various cell lines, transformed cell lines or primary cells derived from a healthy subject or subject suffering from a disease can be used in this assay.
`CC[C@H](C)[C@@H]1NC(=O)[C@@](C)(NC(=O)[C@H](CCCNC(=N)N)NC(=O)[C@H](CC(C)C)NC(=O)[C@@H](NC(=O)[C@H](CCC(N)=O)NC(=O)[C@H](CC(C)C)NC(=O)[C@H](CO)NC(=O)[C@H](CCCNC(=N)N)NC(=O)[C@H](CCC(N)=O)NC(=O)[C@H](CCCNC(=N)N)NC(=O)[C@H](Cc2c[nH]cn2)NC(C)=O)[C@@H](C)O)CCCC=CCCC[C@@](C)(C(=O)N[C@@H](Cc2ccc(Cl)cc2)C(=O)N[C@@H](Cc2ccc3ccccc3c2)C(N)=O)NC(=O)[C@H](CCCNC(=N)N)NC(=O)[C@H](CCC(N)=O)NC1=O` (single isomer, unassigned) [SEQ ID NO: 179, HRQRSLQTLRXIQRX(Phe-4-Cl)(2-Nal)] was tested, and the IC50 was 4.68 µM. `CC[C@H](C)[C@@H]1NC(=O)[C@@](C)(NC(=O)[C@H](CCCNC(=N)N)NC(=O)[C@H](CC(C)C)NC(=O)[C@@H](NC(=O)[C@H](CCC(N)=O)NC(=O)[C@H](CC(C)C)NC(=O)[C@H](CO)NC(=O)[C@H](CCCNC(=N)N)NC(=O)[C@H](CCC(N)=O)NC(=O)[C@H](CCCNC(=N)N)N(C)C(=O)[C@H](Cc2c[nH]cn2)NC(C)=O)[C@@H](C)O)CCCC=CCCC[C@@](C)(C(=O)N[C@@H](CC2CCC2)C(=O)N[C@@H](Cc2ccc3ccccc3c2)C(N)=O)NC(=O)[C@H](CCCNC(=N)N)NC(=O)[C@H](CCC(N)=O)NC1=O` (single isomer, unassigned) [SEQ ID NO: 166, H(N-methylR)QRSLQTLRXIQRX(CBA)(2-Nal)] showed an IC50 of 4.17 µM. For `CC[C@H](C)[C@@H]1NC(=O)[C@@](C)(NC(=O)[C@H](CCCNC(=N)N)NC(=O)[C@H](CC(C)C)NC(=O)[C@@H](NC(=O)[C@H](CCC(N)=O)NC(=O)[C@H](CC(C)C)NC(=O)[C@H](CO)NC(=O)[C@H](CCCNC(=N)N)N(C)C(=O)[C@H](CCC(N)=O)NC(=O)[C@H](CCCNC(=N)N)NC(=O)[C@H](Cc2c[nH]cn2)NC(C)=O)[C@@H](C)O)CCCC=CCCC[C@@](C)(C(=O)N[C@@H](CC2CCC2)C(=O)N[C@@H](Cc2ccc3ccccc3c2)C(N)=O)NC(=O)[C@H](CCCNC(=N)N)NC(=O)[C@H](CCC(N)=O)NC1=O` [SEQ ID NO: 168, HRQ(N-methylR)SLQTLRXIQRX(CBA)(2-Nal)] (Ac-HRQ[NMeR]SLQTLR[S5]IQR[S5][Cba][2Nal]-NH2; staple 11-15; N-terminus and C-terminus assumed), the IC50 was 4.14 µM. `CC[C@H](C)[C@@H]1NC(=O)[C@@](C)(NC(=O)[C@H](CCCNC(=N)N)NC(=O)[C@H](CC(C)C)NC(=O)[C@@H](NC(=O)[C@H](CCC(N)=O)NC(=O)[C@H](CC(C)C)NC(=O)[C@H](CO)NC(=O)[C@H](CCCNC(=N)N)N(C)C(=O)[C@H](CCC(N)=O)NC(=O)[C@H](CCCNC(=N)N)NC(=O)[C@H](Cc2c[nH]cn2)NC(C)=O)[C@@H](C)O)CCCC=CCCC[C@@](C)(C(=O)N[C@@H](CC2CCCCC2)C(=O)N[C@@H](Cc2ccc3ccccc3c2)C(N)=O)NC(=O)[C@H](CCCNC(=N)N)NC(=O)[C@H](CCC(N)=O)NC1=O` [SEQ ID NO: 184, HRQ(N-MeArg)SLQTLRXIQRX(Cha)(2-Nal)] (Ac-HRQ[NMeR]SLQTLR[S5]IQR[S5][Cha][2Nal]-NH2; staple 11-15) showed an IC50 of 2.43 µM. With `CC[C@H](C)[C@@H]1NC(=O)[C@@](C)(NC(=O)[C@H](CCCNC(=N)N)NC(=O)[C@H](CC(C)C)NC(=O)[C@@H](NC(=O)[C@H](CCC(N)=O)NC(=O)[C@H](CC(C)C)NC(C)=O)[C@@H](C)O)CCCC=CCCC[C@@](C)(C(=O)N[C@@H](CC2CCC2)C(=O)N[C@@H](Cc2ccc3ccccc3c2)C(N)=O)NC(=O)[C@H](CCCNC(=N)N)NC(=O)[C@H](CCC(N)=O)NC1=O` [SEQ ID NO: 107, LQTLRXIQRX(CBA)(2-Nal)] (Ac-LQTLR[S5]IQR[S5][Cba][2Nal]-NH2; staple 6-10) the IC50 was over 5 µM. Compound `CC[C@H](C)[C@@H]1NC(=O)[C@@](C)(NC(=O)[C@H](CCCNC(=N)N)NC(=O)[C@H](CC(C)C)NC(=O)[C@@H](NC(=O)[C@H](CCC(N)=O)NC(=O)[C@H](CC(C)C)NC(=O)[C@H](CO)NC(=O)[C@H](CCCNC(=N)N)NC(=O)[C@H](CCC(N)=O)NC(=O)[C@H](CCCNC(=N)N)NC(=O)[C@H](Cc2c[nH]cn2)NC(C)=O)[C@@H](C)O)CCCC=CCCC[C@@](C)(C(=O)N[C@@H](CC2CCC2)C(=O)N[C@@H](Cc2ccc3ccccc3c2)C(N)=O)NC(=O)[C@H](CCCCNC(=N)N)NC(=O)[C@H](CCC(N)=O)NC1=O` [SEQ ID NO: 171, HRQRSLQTLRXIQ(homoR)X(CBA)(2-Nal)] (Ac-HRQRSLQTLR[S5]IQ[hArg][S5][Cba][2Nal]-NH2; staple 11-15) has an IC50 of 4.76 µM. `CC[C@H](C)[C@@H]1NC(=O)[C@@](C)(NC(=O)[C@H](CCCNC(=N)N)NC(=O)[C@H](CC(C)C)NC(=O)[C@@H](NC(=O)[C@H](CCC(N)=O)NC(=O)[C@H](CC(C)C)NC(=O)[C@H](CO)NC(=O)[C@H](CCCNC(=N)N)NC(=O)[C@H](CCC(N)=O)NC(=O)[C@H](CCCCNC(=N)N)NC(=O)[C@H](Cc2c[nH]cn2)NC(C)=O)[C@@H](C)O)CCCC=CCCC[C@@](C)(C(=O)N[C@@H](CC2CCCCC2)C(=O)N[C@@H](Cc2ccc3ccccc3c2)C(N)=O)NC(=O)[C@H](CCCNC(=N)N)NC(=O)[C@H](CCC(N)=O)NC1=O` [SEQ ID NO: 183, H(homoArg)QRSLQTLRXIQRX(Cha)(2-Nal)] (Ac-H[hArg]QRSLQTLR[S5]IQR[S5][Cha][2Nal]-NH2; staple 11-15) gave an IC50 of 2.53 µM. `CCCCCCCCCCCCCCCC(=O)NCCOCCOCCOCCOCCC(=O)N[C@@H](Cc1c[nH]cn1)C(=O)N[C@@H](CCCNC(=N)N)C(=O)N[C@@H](CCC(N)=O)C(=O)N[C@@H](CCCNC(=N)N)C(=O)N[C@@H](CO)C(=O)N[C@@H](CC(C)C)C(=O)N[C@@H](CCC(N)=O)C(=O)N[C@H](C(=O)N[C@@H](CC(C)C)C(=O)N[C@@H](CCCNC(=N)N)C(=O)N[C@@]1(C)CCCC=CCCC[C@@](C)(C(=O)N[C@@H](CC2CCC2)C(=O)N[C@@H](Cc2ccc3ccccc3c2)C(N)=O)NC(=O)[C@H](CCCNC(=N)N)NC(=O)[C@H](CCC(N)=O)NC(=O)[C@H]([C@@H](C)CC)NC1=O)[C@@H](C)O` [SEQ ID NO: 160, HRQRSLQTLRXIQRX(CBA)(2-Nal)] ({Palmitoyl-PEG4}-HRQRSLQTLR[S5]IQR[S5][Cba][2Nal]-NH2; staple 11-15) showed an IC50 of 0.83 µM. `CC[C@H](C)[C@@H]1NC(=O)[C@@](C)(NC(=O)[C@H](CCCNC(=N)N)NC(=O)[C@H](CC2CCCCC2)NC(=O)[C@]2(C)CCCC=CCCC[C@](C)(NC(=O)[C@H](CCCNC(=N)N)NC(=O)[C@H](CCC(N)=O)NC(=O)[C@H](CCCNC(=N)N)NC(=O)[C@H](Cc3c[nH]cn3)NC(C)=O)C(=O)N[C@@H](CC(C)C)C(=O)N[C@@H](CCC(N)=O)C(=O)N2)CCCC=CCCC[C@@](C)(C(=O)N[C@@H](CC2CCCCC2)C(=O)N[C@@H](Cc2ccc3ccccc3c2)C(N)=O)NC(=O)[C@H](CCCNC(=N)N)NC(=O)[C@H](CCC(N)=O)NC1=O` [SEQ ID NO: 92, HRQRXLQX(Cha)RZIQRZ(Cha)(2-Nal)] (Ac-HRQR[S5]LQ[S5][Cha]R[S5]IQR[S5][Cha][2Nal]-NH2; staple 5-8, 11-15) showed an IC50 of 2.54 µM. With `CC[C@H](C)[C@@H]1NC(=O)[C@@](C)(NC(=O)[C@H](CCCNC(=N)N)NC(=O)[C@H](CC(C)C)NC(=O)[C@]2(C)CCCC=CCCC[C@](C)(NC(=O)[C@H](CCCNC(=N)N)NC(=O)[C@H](CCC(N)=O)NC(=O)[C@H](CCCNC(=N)N)NC(=O)[C@H](Cc3c[nH]cn3)NC(C)=O)C(=O)N[C@@H](CC(C)C)C(=O)N[C@@H](CCC(N)=O)C(=O)N2)CCCC=CCCC[C@@](C)(C(=O)N[C@@H](CC2CCC2)C(=O)N[C@@H](Cc2ccc3ccccc3c2)C(N)=O)NC(=O)[C@H](CCCNC(=N)N)NC(=O)[C@H](CCC(N)=O)NC1=O` [SEQ ID NO: 90, HRQRXLQXLRZIQRZ(CBA)(2-Nal)] (Ac-HRQR[S5]LQ[S5]LR[S5]IQR[S5][Cba][2Nal]-NH2; staple 5-8, 11-15) the IC50 was 1.83 µM. In the case of `CC[C@H](C)[C@@H]1NC(=O)[C@@](C)(NC(=O)[C@H](CCCNC(=N)N)NC(=O)[C@H](CC(C)C)NC(=O)[C@@H](NC(=O)[C@H](CCC(N)=O)NC(=O)[C@H](CC(C)C)NC(=O)[C@H](CO)NC(=O)[C@H](CCCNC(=N)N)NC(=O)[C@H](CCC(N)=O)N(C)C(=O)[C@H](CCCNC(=N)N)NC(=O)[C@H](Cc2c[nH]cn2)NC(C)=O)[C@@H](C)O)CCCC=CCCC[C@@](C)(C(=O)N[C@@H](CC(C)(C)C)C(=O)N[C@@H](Cc2ccc3ccccc3c2)C(N)=O)NC(=O)[C@H](CCCNC(=N)N)NC(=O)[C@H](CCC(N)=O)NC1=O` [SEQ ID NO: 193, HR(N-MeGln)RSLQTLRXIQRX(β-tBu-Ala)(2-Nal)] (Ac-HR[NMeQ]RSLQTLR[S5]IQR[S5][tBuAla][2Nal]-NH2; staple 11-15), the IC50 is reported as 2.67 µM. In the case of `CC[C@H](C)[C@@H]1NC(=O)[C@@](C)(NC(=O)[C@H](CCCNC(=N)N)NC(=O)[C@H](CC(C)C)NC(=O)[C@@H](NC(=O)[C@H](CCC(N)=O)NC(=O)[C@H](CC(C)C)NC(=O)[C@H](CO)NC(=O)[C@H](CCCNC(=N)N)NC(=O)[C@H](CCC(=O)O)NC(=O)[C@H](CCCNC(=N)N)NC(=O)[C@H](Cc2c[nH]cn2)NC(C)=O)[C@@H](C)O)CCCC=CCCC[C@@](C)(C(=O)N[C@@H](CC(C)C)C(=O)N[C@@H](Cc2ccc3ccccc3c2)C(N)=O)NC(=O)[C@H](CCCNC(=N)N)NC(=O)[C@H](CCC(N)=O)NC1=O` [SEQ ID NO: 6, HRERSLQTLRXIQRXL(2-Nal)] (Ac-HRERSLQTLR[S5]IQR[S5]L[2Nal]-NH2; staple 11-15), the IC50 is reported as 5.3 µM. In the case of `CC[C@H](C)[C@@H]1NC(=O)[C@@](C)(NC(=O)[C@H](CCCNC(=N)N)NC(=O)[C@H](CC(C)C)NC(=O)[C@@H](NC(=O)[C@H](CCC(N)=O)NC(=O)[C@H](CC(C)C)NC(=O)[C@H](CO)NC(=O)[C@H](CCCNC(=N)N)NC(=O)[C@H](CCC(=O)O)NC(=O)[C@H](CCCNC(=N)N)NC(=O)[C@H](Cc2c[nH]cn2)NC(C)=O)[C@@H](C)O)CCCC=CCCC[C@@](C)(C(=O)N[C@@H](CC2CCC2)C(=O)N[C@@H](Cc2ccc3ccccc3c2)C(N)=O)NC(=O)[C@H](CCCNC(=N)N)NC(=O)[C@H](CCC(N)=O)NC1=O` [SEQ ID NO: 14, HRERSLQTLRXIQRX(CBA)(2-Nal)] (Ac-HRERSLQTLR[S5]IQR[S5][Cba][2Nal]-NH2; staple 11-15), the IC50 is reported as 1.49 µM.
